The values below come from US20240083883A1, “RAD51 BINDING INHIBITORS AND METHODS OF USE THEREOF” (Sarissa Inc., priority 2020, published 2024).

Several values for one entry are separate records, joined by “and”; a condition that tells them apart may be missing. Identical values can stand only once. Like-named read-outs stand apart in the source and are kept apart here.

Data set [1] relates to pancreatic cancer cell line (PANC-1). Briefly: Proliferation assay, PANC-1. The conditions noted are these: for inhibition of proliferation compared with IBR120: range of concentrations. Format: cell-based. On the procedure:
(§1) Proliferation assays: Cells are maintained in minimum essential medium alpha plus 10% fetal bovine serum and penicillin (50 units/mL)/streptomycin (50 mg/L) (growth medium). Cultures are incubated in a humidified atmosphere of 5% CO2 at 37° C. Rapidly proliferating cells are used to establish cultures of experimental cells, which are allowed to adhere overnight in 96-well plates or 25-cm^2 flasks prior to manipulation.
(§2) Exposure to chemotherapy drugs and combinations thereof: Cells are grown in 96-well plates and treated with simultaneous exposure to a single drug or a combination of two drugs at the concentrations indicated. The relative cell density is determined after 4 days by viability staining (alamarBlue© or neutral red).
(§3) The relative density of cells treated with two agents is normalized to the density observed for a respectively treated “second agent” control. The concentration of drug that inhibits proliferation by 50% (IC50 value) is interpolated from plotted data. The change in the IC50 value of a chemotherapy drug caused by the presence of the second agent is determined as a percent of the IC50 of the first drug alone. Enhancement of cytotoxicity is indicated by a decrease in the IC50 value. This methodology, previously reported (Ferguson et al., 2009; Blake et al., 2017; Ferguson et al., 2018), provides a quantitative, concentration-dependent representation of the magnitude of the drug interaction.

Another data set has as its system HK-2. Put plainly: Proliferation assay, normal cell line surrogate HK-2. Format: cell-based, human. The settings on record: HK-2, single agent, 4 days. As to the method: as §1, §2
(§4) The relative density of cells treated with two agents is normalized to the density observed for a respectively treated “second agent” control. The concentration of drug that inhibits proliferation by 50% (IC50 value) is interpolated from plotted data. The change in the IC50 value of a chemotherapy drug caused by the presence of the second agent is determined as a percent of the IC50 of the first drug alone. […] This methodology, previously reported (Ferguson et al., 2009; Blake et al., 2017; Ferguson et al., 2018), provides a quantitative, concentration-dependent representation of the magnitude of the drug interaction. […]

In the next data set the test system is normal cells. Put plainly: Toxicity on normal cells (summary of the normal cell line surrogates). Format: cell-based, human. The settings on record: normal cell surrogates HEK293, CCD841, HK-2, read-out: toxicity (IC50) on normal cells, approximate. On the procedure:
as §1, §2, §3
FIG. 23 graphically depicts the toxicity effect on normal (not fully tumorigenic) cell line surrogates resulting from exposure to JKYN-1 (base). The cell line surrogates include: HEK293 (human embryonic kidney transformed with adenovirus 5 DNA); CCD841 (human embryonic colonic epithelial, untransformed); and HK-2 (human kidney proximal tubule, papilloma).

A short description of data set [2]: Solubility comparison of RAD51 inhibitors. Format: physicochemical. The settings on record: for appearance of the 1 mM solution in H2O/DMSO: 1 mM in H2O/DMSO. As to the method: A comparison of the solubility of selected compounds of the present invention with known RAD51 inhibitors was carried out.
Aqueous samples of the mesylate salt were readily prepared and were suitable for testing in inhibition assays. Exemplary solutions were prepared as follows:
soluble in water−1.0 mg JKYN-1-mes+75.9 μl of water=20 mM (13.2 mg/ml)
Exemplary solutions were prepared as follows:
IBR2 was soluble in DMSO to at least 166.8 mM (66.7 mg/ml). Exemplary solutions were prepared as follows:
IBR120 is soluble in DMSO to at least 20 mM (7.77 mg/ml).

The next data set concerns NSCLC cell line A549b. Briefly: Proliferation assay, A549b. Format: cell-based. The conditions noted are these: for inhibition of proliferation compared with IBR120: range of concentrations. As to the method:
as §1, §2, §3

Another data set relates to HEK293. Put plainly: Proliferation assay, normal cell line surrogate HEK293. Format: cell-based, human. The conditions noted are these: HEK293, single agent, 4 days. On the procedure: as §1, §2, §4
The test system of the next data set is CCD841. Put plainly: Proliferation assay, normal cell line surrogate CCD841. The format is cell-based, human. The settings on record: CCD841, single agent, 4 days. On the procedure: as §1, §2, §4
The next data set has as its system MDA-MB-231. Briefly: Proliferation assay, MDA-MB-231. The format is cell-based. The conditions noted are these: Homo sapiens; MDA-MB-231, single agent. On the procedure: as §1, §2
(§5) The relative density of cells treated with two agents is normalized to the density observed for a respectively treated “second agent” control. The concentration of drug that inhibits proliferation by 50% (IC50 value) is interpolated from plotted data. The change in the IC50 value of a chemotherapy drug caused by the presence of the second agent is determined as a percent of the IC50 of the first drug alone. […] This methodology, previously reported (Ferguson et al., 2009; Blake et al., 2017; Ferguson et al., 2018), provides a quantitative, concentration-dependent representation of the magnitude of the drug interaction.

Data set [3] concerns MCF-7 breast carcinoma cell line. Briefly: Proliferation assay, MCF-7. Format: cell-based. As to the method: as §1, §2, §3
In data set [4] the test system is DU145 prostate carcinoma cell line. Put plainly: Proliferation assay, DU145. Format: cell-based. As to the method:
as §1, §2, §5

The subject of a further data set is NSCLC cell line H1650. Briefly: Proliferation assay, NSCLC cell line H1650. The format is cell-based. As to the method: as §1, §2, §3
The test system of data set [5] is prostate carcinoma cell line LNCaP. Briefly: Proliferation assay, LNCaP. The format is cell-based. On the procedure: as §1, §2, §3
The test system of data set [6] is N87 stomach carcinoma cell line. Put plainly: Proliferation assay, N87. Format: cell-based. As to the method:
as §1, §2, §3

Data set [7] has as its system most tested cancer cell lines. The conditions noted are these: cited from earlier work.
The conditions of data set [8]: background section; cited from earlier work.

Regarding `CN1CCN(c2ccc(-c3ccc4c(c3)[C@H](c3c[nH]c5ccccc35)N(S(=O)(=O)Cc3ccccc3)C4)cc2)CC1` [Compound 1, (R)-3-(2-(Benzylsulfonyl)-6-(4-(4-methylpiperazin-1-yl)phenyl)isoindolin-1-yl)-1H-indole], the “inhibition of proliferation compared with IBR120” value in data set [1] (PANC-1, single agent) is recorded as “superior activity”; in the data set with NSCLC cell line A549b (single agent), “superior activity”. Further, the IC50 with HK-2 (Homo sapiens, HK-2, 96 h) is 3.92 µM; in the data set on normal cells (listed as JKYN-1) it was 4 to 6 µM; in the data set on HEK293 (Homo sapiens, HEK293, 96 h), 4.16 µM; with CCD841 (Homo sapiens, CCD-841, 96 h), 5.71 µM. Further, the “solubility in water at 10 mg/ml” value in [2] is reported as “not very soluble in water”. In addition, the “appearance of the 1 mM solution in H2O/DMSO” value (“appearance … in H2O/DMSO” for short) in data set [2] was “less cloudy than 1 mM IBR120”.
For `CN1CCN(c2ccc(-c3ccc4c(c3)[C@H](c3c[nH]c5ccccc35)N(S(=O)(=O)Cc3ccccc3)C4)cc2)CC1.CS(=O)(=O)O` [JKYN-1-mesylate, (R)-3-(2-(Benzylsulfonyl)-6-(4-(4-methylpiperazin-1-yl)phenyl)isoindolin-1-yl)-1H-indole, Mesylate Salt], the half-inhibitory concentration (IC50) is 5.66 ± 0.36 µM with MDA-MB-231; 4.69 ± 1.14 µM in [1] (Homo sapiens, PANC-1, single agent); 3.42 µM in the data set on HK-2 (Mesylate Salt); 3 to 4 µM in the data set with normal cells (Homo sapiens); 3 to 4 µM with normal cells (Mesylate Salt); at most 1.5 µM in [3] (Homo sapiens, MCF7, MCF-7, about 5 μM (or more) 4-OH-tamoxifen, read-out: IC50 of JKYN-1-mesylate in the presence of 4-OH-tamoxifen). Moreover, the IC50 in [3] (Homo sapiens, MCF7, MCF-7, single agent, read-out: IC50) was 4.36 ± 0.42 µM; in data set [3] (MCF-7, single agent, Mesylate Salt, read-out: IC50), 4 to 5 µM; with NSCLC cell line H1650 (H1650, single agent, Mesylate Salt, read-out: IC50) it was at least 4 µM; in the data set on NSCLC cell line H1650 (Homo sapiens, NCI-H1650, H1650, 6 μM osimertinib, read-out: IC50 of JKYN-1-mesylate in the presence of osimertinib), around 2 µM; with NSCLC cell line H1650 (Homo sapiens, NCI-H1650, H1650, single agent, read-out: IC50), 3.95 µM; in the data set with NSCLC cell line A549b (single agent), 3.96 ± 0.44 µM. For the same compound, the IC50 in the data set on HEK293 (Mesylate Salt) came to 2.89 µM; with CCD841 (Mesylate Salt), 3.68 µM; in data set [5] (Homo sapiens, single agent) it was 3.36 ± 0.37 µM; in data set [6] (N87, single agent) it was 2210 ± 1130 nM. In data set [1] (PANC-1, combination with afatinib), the “combination effect with afatinib” value was “positive (synergistic) effect”. In addition, the “inhibition of proliferation compared with IBR120” value in data set [1] (PANC-1, single agent) is recorded as “superior activity”; with NSCLC cell line A549b (single agent), “superior activity”. Moreover, the “decrease of the IC50 value of 4-OH-tamoxifen” value in data set [3] (MCF-7, combination with 4-OH-tamoxifen) is listed as “up to 80%”. Moreover, the “combination effect with 4-OH-tamoxifen” value in [3] (MCF-7, range of concentrations) is recorded as “synergistic effect”. The “effect on inhibition by enzalutamide” value in [4] (DU145, combination with enzalutamide) is “enhanced enzalutamide toxicity”. Further, the “combination effect with enzalutamide” value in [4] (DU145, range of concentrations) is on record as “synergistic effect”; in [5] (range of concentrations), “synergistic effect”. Also, in the data set on NSCLC cell line H1650 (H1650, combination with osimertinib), the “decrease of the IC50 value of osimertinib” value was “up to 75%”. In the data set with NSCLC cell line H1650 (H1650, range of concentrations), the “combination effect with osimertinib” value was “synergistic effect”. Further, the “solubility in water” value in [2] is listed as “highly soluble in water”. In addition, the solubility in data set [2] (water, thermodynamic from solid) was ≥ 13200 µg/mL and ≥ 20000 µM. Besides, the “effect on inhibition by regorafenib” value with NSCLC cell line A549b (combination with regorafenib) is on record as “potentiates regorafenib”. Moreover, the “decrease of the IC50 value of enzalutamide” value in data set [5] (combination with enzalutamide) is “up to 30%”. The “combination effect with regorafenib” value in data set [6] (N87) is recorded as “synergistic effect”. Besides, the “decrease of the IC50 value of regorafenib” value in data set [6] (N87, combination with regorafenib) was “up to 54%”.
As to `O=S(=O)(Cc1ccccc1)N1C=Cc2ccccc2C1c1c[nH]c2ccccc12` (centres unmarked) [IBR2], the IC50 in data set [7] is 12 to 20 µM. In data set [2], the “appearance … in H2O/DMSO” value is reported as “slightly cloudy”; the “solubility in DMSO” value is “at least 166.8 mM and ≥ 66.7 mg/ml”; the “appearance of the 1 mM H2O/DMSO solution diluted 1:10 or more in water” value is on record as “clear”. For the same compound, the “upper limit of solubility in H2O/DMSO” value in data set [2] (H2O/DMSO) was around 1 mM. Moreover, in data set [2] (water), the “solubility in water” value was “insoluble in water”. Moreover, the “aqueous solubility (background statement)” value in data set [8] is recorded as “low aqueous solubility”.
Regarding `O=S(=O)(Cc1ccccc1)N1Cc2ccccc2[C@@H]1c1c[nH]c2ccccc12` [IBR120], in [2], the “appearance … in H2O/DMSO” value is “a little bit cloudy”; the “solubility in DMSO” value was “at least 20 mM and ≥ 7.77 mg/ml”; the “appearance of the 1 mM H2O/DMSO solution diluted 1:10 or more in water” value is on record as “clear”. The “solution of 25 mg/ml in 100% DMSO” value in data set [2] (25 mg/ml, 100% DMSO) is given as “dissolves well”. Further, in data set [2] (water), the “solubility in water” value was “insoluble in water”. The “aqueous solubility (background statement)” value in [8] is recorded as “low aqueous solubility”.

The IC50 is the concentration that gives 50% inhibition. A word on the solubility: it is the concentration that dissolves in the medium under given conditions. Lower therefore signals a poorly soluble substance.
